In US9751919B2, “Antimicrobial compositions comprising a hyaluronic acid binding peptide and a β-lactam antibiotic” (priority 2012, dated 2017):
“And” between values parts separate entries of the source, which are not always exact repeats. Equal values may be shown once. “Also recorded” adds a separate entry of the source. Read-outs that look alike come from different tables or passages of the source.

What was measured:
CA-MRSA = assay: MIC (CLSI broth dilution), agent alone; assay type: cell-based, Staphylococcus aureus
Protocol: (§1) VISA (strains 92, 95 and 96), VRSA (strains 105 and 106) and E. coli (strain 69717) isolates were also tested. One MSSA was used as a control. All MICs were assessed using CLSI guidelines. Also assessed was the activity of cefazolin, ceftriazone, meropenem, and a piperacillin/tazobactam combination antibiotic. Minimum inhibitory concentration (MIC) is the lowest concentration of an antimicrobial that will inhibit the visible growth of a microorganism after incubation.
(§2) Antimicrobial Susceptibility Testing: A custom designed panel of antimicrobials was created. […] These agents were obtained as laboratory grade powders from their respective manufacturers. Stock solutions were prepared and dilutions made as described by the Clinical Laboratory Standards Institute (2005 CLSI). Following two subcultures from frozen stock the MICs of the antimicrobial agents for the isolates were determined by the CLSI 2005 approved broth macrodilution method. Briefly, test tubes containing doubling antibiotic dilutions (2 ml per tube) of cation adjusted Mueller-Hinton broth (eg. for Enterobacteriaceae) with or without lysed horse blood (2-5% V/V) [eg. for S. pneumoniae] were inoculated to achieve a final concentration of approximately 5×10^5 CFU/ml and incubated in ambient air for 24 hours prior to reading. Colony counts were performed periodically to confirm inocula. Quality control was performed every two weeks using a variety of ATCC QC organisms including; S. aureus 29213, E. faecalis 29212, E. coli 25922 and P. aeruginosa 27853.
(§3) One MSSA was used as a control. All MICs were assessed using CLSI guidelines.
(§4) One MS SA and ATCC reference strains were used as controls. All MICs were assessed using CLSI guidelines.

HA-MRSA = assay: MIC (CLSI broth dilution), agent alone; assay type: cell-based, Staphylococcus aureus
Protocol: as §1, §2, §3, §4

VRSA = assay: MIC (CLSI broth dilution), agent alone; assay type: cell-based, Staphylococcus aureus; set-up: unit not given beside the values
Protocol: as §1
(§5) Antimicrobial Susceptibility Testing: A custom designed panel of antimicrobials was created. The panel included: PEP35, penicillin, piperacillin/tazobactam, cefazolin, ceftriaxone, meropenem, clarithromycin, clindamycin, gentamicin, amikacin, vancomycin, ciprofloxacin, levofloxacin, moxifloxacin, linezolid, trimethoprim/sulfamethoxazole and doxycycline. These agents were obtained as laboratory grade powders from their respective manufacturers. Stock solutions were prepared and dilutions made as described by the Clinical Laboratory Standards Institute (2005 CLSI). Following two subcultures from frozen stock the MICs of the antimicrobial agents for the isolates were determined by the CLSI 2005 approved broth macrodilution method. Briefly, test tubes containing doubling antibiotic dilutions (2 ml per tube) of cation adjusted Mueller-Hinton broth (eg. for Enterobacteriaceae) with or without lysed horse blood (2-5% V/V) [eg. for S. pneumoniae] were inoculated to achieve a final concentration of approximately 5×10^5 CFU/ml and incubated in ambient air for 24 hours prior to reading. Colony counts were performed periodically to confirm inocula. Quality control was performed every two weeks using a variety of ATCC QC organisms including; S. aureus 29213, E. faecalis 29212, E. coli 25922 and P. aeruginosa 27853. For all antimicrobials as well as PEP35, CLSI criteria were used.
as §3

VISA = assay: MIC (CLSI broth dilution), agent alone; assay type: cell-based, Staphylococcus aureus; set-up: unit: µg/mL
Protocol: as §1, §5, §3

E. coli = assay: MIC (CLSI broth dilution), agent alone; assay type: cell-based, Escherichia coli; conditions: for MIC: agent alone
Protocol: as §1, §5, §4

[1] = test system: MRSA, VISA, VRSA and E. coli; assay: MIC, agent alone, panel statement; assay type: cell-based; conditions: versus MRSA, VISA, VRSA and E. coli
Protocol: as §1, §5

[2] = test system: MRSA, VISA, VRSA and E. coli; assay: Checkerboard assay, panel statement; assay type: cell-based; conditions: with β-lactams versus MRSA, VISA, VRSA and E. coli
Protocol: Checkerboard assays were carried out as described by Bonapace et al.
Diagnostic Microbiology and Infectious Diseases 2002; 44:363-366. In brief, checkerboard assays were performed in 96 well microtitre trays using an 8-by-8 well configuration. […] 96-well custom designed microtitre plates contained 100 ul/well of cation adjusted Mueller-Hinton broth (eg. for Enterobacteriaceae) with or without lysed horse blood (2-5% V/V) [eg. for S. pneumoniae] and were inoculated to achieve a final concentration of approximately 5×10^5 CFU/ml and incubated in ambient air for 24 hours prior to reading. Colony counts were performed periodically to confirm inocula. Quality control was performed every two weeks using a variety of ATCC QC organisms including; S. pneumoniae 49619, S. aureus 29213, E. faecalis 29212, E. coli 25922 and P. aeruginosa 27853. […] All peptides were assessed for synergy with β-lactams and vancomycin. For all antimicrobials as well as the peptides, CLSI criteria were used.
The fractional inhibitory concentration index (FIC index) was used to interpret synergy, antagonism or additivity/indifference. FIC index=FIC of drug A+FIC of drug B where:
The FIC of drug A and drug B was calculated as follows, FIC drug A=MIC of drug A in combination/MIC of drug A alone and FIC of drug B=MIC of drug B in combination/MIC of drug B alone. Synergy was defined as FIC index ≦0.5, additivity/indifference defined as a FIC between 0.5 and 4 and antagonism defined as an FIC index >4.
The fractional inhibitory concentration index (FIC index) was used to interpret synergy, antagonism or additivity/indifference. FIC index=FIC of drug A+FIC of drug B where the FIC of drug A and drug B was calculated as follows, FIC drug A=MIC of drug A in combination/MIC of drug A alone and FIC of drug B=MIC of drug B in combination/MIC of drug B alone. Synergy was defined as FIC index ≦0.5, additivity/indifference defined as an FIC of between 0.5 and 4 and antagonism defined as an FIC index >4.

MSSA = assay: MIC (CLSI broth dilution), agent alone; assay type: cell-based, Staphylococcus aureus; conditions: for MIC: S. aureus control, agent alone
Protocol: as §1, §2, §3, §4

GAHWQFNALTVRGGGS (Laboratory designed HA inhibitor peptide) [PEP-52]
MIC (CA-MRSA; CA-MRSA 69615 (USA400), agent alone, in µg/mL): > 512 and 1024 | MIC (CA-MRSA; CA-MRSA 70857 (USA400), agent alone, in µg/mL): > 512 and 1024 | MIC (HA-MRSA; HA-MRSA 70798 (USA100/800), agent alone): > 512 and > 1024 | MIC (HA-MRSA; HA-MRSA 77090 (USA100/800), agent alone, in µg/mL): > 512 and 1024 | MIC (VRSA; VRSA 105): > 512 and > 1024 | MIC (VRSA; VRSA 106): > 512 and > 1024 | MIC (VISA; VISA 92, in µg/mL): > 512 and 1024 | MIC (VISA; VISA 95, in µg/mL): > 512 and 1024 | MIC (VISA; VISA 96, in µg/mL): > 512 and 1024 | MIC (E. coli; E. coli 69716): > 512 and > 1024 | activity (in words) [1]: no activity; also recorded: not active | synergistic activity (in words) [2]: no synergistic activity

CC1=C(C(=O)O)N2C(=O)[C@@H](NC(=O)[C@H](N)c3ccccc3)[C@H]2SC1 [Cephalexin]
MICs alone, range (CA-MRSA; 50 CA-MRSA strains): 64 to 512 µg/mL | strains resistant to the antibiotic (CA-MRSA; 50 CA-MRSA strains): 50 of the 50 strains | MIC (CA-MRSA; Staphylococcus aureus, MRSA / USA300): 128 µg/mL | MIC (CA-MRSA; Staphylococcus aureus, MRSA / USA400): 128 µg/mL | MIC (CA-MRSA; Staphylococcus aureus, MRSA / USA400, CA-MRSA (CMRSA7/USA400/MW2) isolates, one per table line, agent alone, read-out: MIC): 512 µg/mL | MICs alone, range (HA-MRSA; 50 HA-MRSA strains): 128 to 512 µg/mL | strains resistant to the antibiotic (HA-MRSA; 50 HA-MRSA strains): 50 of the 50 strains | MIC (HA-MRSA; Staphylococcus aureus, MRSA / USA200, read-out: Cephalexin (MIC), HA-MRSA (CMRSA4/USA200), antibiotic alone): 512 µg/mL | Cephalexin (MIC) (MSSA; S. aureus (control row), antibiotic alone, two values in cell): 4/4 | MIC (MSSA): 8 µg/mL | MIC (MSSA; Staphylococcus aureus, MSSA, read-out: MIC): 4 µg/mL | Cephalexin (MIC) (E. coli; E. coli, antibiotic alone, two values in cell): 8/8 | MIC (E. coli; Escherichia coli, E. coli control, read-out: MIC): 8 µg/mL
